Values quoted from earlier work, collected in patent US20080293709A1, “Novel 2-Amino-Heterocycles Useful in the Treatment of Abeta-Related Pathologies” (AstraZeneca AB, priority 2005, published 2008).
Non-standard residues stand in square brackets, D forms with d. Residues, ends and D or L forms follow the SMILES beside them. *: point of attachment. Sta = CC(C)C[C@H](N)[C@@H](O)CC(=O)O; Isovaleryl = CC(C)CC(=O)*

Target: BACE (Homo sapiens, UniProt P56817)
Sequence (P56817 46-501): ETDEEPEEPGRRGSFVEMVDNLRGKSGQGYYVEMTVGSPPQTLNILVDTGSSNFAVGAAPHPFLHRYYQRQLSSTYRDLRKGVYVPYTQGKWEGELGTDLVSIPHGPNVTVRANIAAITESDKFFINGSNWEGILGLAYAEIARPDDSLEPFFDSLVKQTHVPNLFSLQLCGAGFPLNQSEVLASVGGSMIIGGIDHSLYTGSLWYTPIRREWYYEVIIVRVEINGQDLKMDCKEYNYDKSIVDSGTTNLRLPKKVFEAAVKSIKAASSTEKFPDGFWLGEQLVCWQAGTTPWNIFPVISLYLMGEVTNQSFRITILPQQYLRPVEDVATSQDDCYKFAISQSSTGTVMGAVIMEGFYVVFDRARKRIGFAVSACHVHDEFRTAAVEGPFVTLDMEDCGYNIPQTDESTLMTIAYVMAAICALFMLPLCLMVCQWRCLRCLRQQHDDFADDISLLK

- inhibition of BACE: inhibited weakly
SMILES: CC(C)CC(=O)N[C@H](C(=O)N[C@H](C(=O)N[C@@H](CC(C)C)[C@@H](O)CC(=O)N[C@@H](C)C(=O)N[C@@H](CC(C)C)[C@@H](O)CC(=O)O)C(C)C)C(C)C [pepstatin] (Isovaleryl-VV[Sta]A[Sta]-OH)
